Data as given in article PMC10120462, “Styrylquinazoline derivatives as ABL inhibitors selective for different DFG orientations” (Journal of Enzyme Inhibition and Medicinal Chemistry, 2023).

Columns and labels:
K562 cells [1] = experiment: Immunoblotting; type: cell-based, human; settings: 16 h; for STAT5 phosphorylation: at the concentrations used; for Inhibition of expression of Ser473 phosphorylated Akt / Cyclin E1 protein level: IS8 only at 25 µM; for Cyclin E1 protein level: IS10 40 and 20 µM
Source text: Changes in the expression of the BCR-ABL and ABL proteins and their downstream targets, such as STAT5, Src, Akt and Fyn after treatment with the tested compounds were also examined. As shown in Figure 7(B), no significant changes in the phosphorylation of BCR-ABL were observed after treatment with the tested styrylquinazolines. […] For reference inhibitors, there were greater changes in the expression of this protein. There were also interesting changes in the downstream targets of ABL, STAT5 and Src. […] Unfortunately, contrary to our assumptions and earlier results, IS1 was ineffective in inhibiting ABL, STAT5, and Src phosphorylation at the concentrations used. However, this derivative caused downregulation of Fyn expression, which could confirm its high inhibitory potential from in vitro kinase assays. […] Thus, these compounds were capable of blocking the pro-survival pathway facilitated by Akt kinase.
Prior to the experiment, K562 cells were seeded at a density of 500,000 cells per well in 3 cm Petri dishes (Nunc). […] After 16 h of exposure, cells were collected, centrifuged, and lysed on ice in complete RIPA buffer containing Halt Protease Inhibitor Cocktail, Halt Phosphatase Inhibitor Cocktail and 0.5 M EDTA (all from Thermo Scientific). Protein quantification was measured using a BCA Protein Assay Kit (Thermo Scientific) according to the manufacturer’s protocol. Equal amounts of the proteins were electrophoresed on SDS-page gels and transferred to nitrocellulose membranes. After blocking in 5% non-fat milk prepared in TTBS (Tris buffered saline with Tween 20), membranes were incubated overnight at 4 °C with specific primary antibodies (all from Cell Signalling) at a dilution of 1:1000 for c-ABL, phospho-c-ABL, Stat5, phospho-Stat5, cyclin E1, p27, PARP, AIF, BID, Src, Fyn, Akt, phospho-Akt, and at a dilution of 1:2000 for reference proteins (vinculin, β-actin and GAPDH). The next day, membranes were washed and incubated with horseradish peroxidase (HRP)-conjugated secondary antibodies for 1 h at room temperature. Chemiluminescence signals were recorded after staining with SuperSignal™ West Pico Chemiluminescent Substrate (Thermo Scientific) using a ChemiDoc™ XRS + System (BioRad). Experiments were performed four to five times. Densitometric analysis was performed using ImageJ software (Wayne Rasband, National Institutes of Health, USA).

K562 cells [2] = experiment: Analysis of mRNA expression (RT-qPCR); type: cell-based, human; settings: 16 h; IS1 50 µM, IS8 12 µM, IS10 20 µM, imatinib 2 µM, GNF-2 2 µM
Source text: In the next step, the inhibitory potential of the tested compounds at the gene and protein levels was verified in K562 cells. For this purpose, we examined changes in the expression of the ABL signalling pathway and ABL downstream targets after exposure to IS1, IS8 and IS10. […] The enhanced transcription of the ABL gene might be related to the low protein level that was reached after exposure to the tested drugs. Thus, the cellular machinery could induce increased protein synthesis to counteract the effects of inhibition. […] The second gene studied, SRC, is involved in signal transduction from growth factors and receptors. Similar to ABL, the Src protein has oncogenic activity and is overexpressed in cancer cells. It is also important to emphasise that both kinases form a specific direct signalling network, as […].
Reverse transcription was carried out with 1 μg total RNA using a ProtoScript M-MuLV First Strand cDNA Synthesis Kit (New England BioLabs). The RT-qPCR was performed using a CTX96 Real-Time PCR Detection System (Biorad) in a 10 μL reaction volume containing Luna Universal qPCR Master Mix (New England BioLabs), specific primer pair mix and cDNA. The PCR reaction was performed as follows: initial denaturation at 95 °C for 60 s; followed by 40 cycles of denaturation at 95 °C, 15 s; annealing (primer-specific temperature for 30 s) and extension at 72 °C for 30 s. Melting curve analysis was used to determine the specific PCR products. The results were analysed based on comparison of the expression of the target genes with the reference gene – HPRT1 using the 2^−^ΔΔ^CT method. Experiments were performed at least four times.

Lck = biological target: T1, Lck (Homo sapiens, UniProt P06239); experiment: Tyrosine kinase assay (Kinase Selectivity System TK-2, ADP-Glo); type: biochemical; settings: 1 h incubation, mean ± SD of four experiments
T1 construct: purchased Promega

NHDF = experiment: Cytotoxicity studies (MTS), normal fibroblasts; type: cell-based; settings: 72 h, normal human fibroblasts, read-out: Antiproliferative activity IC50 NHDF
Source text: In contrast, the other cell lines studied represent common cancers found in the human population. Nevertheless, these cell lines are characterised by a different landscape of kinase expression, as reported in[36]. In chronic leukaemia cells, an aberration of the Philadelphia chromosome is common in which a fragment of chromosome 9 is displaced to chromosome 22, leading to the formation of the oncogenic protein BCR-ABL. The altered structure of the protein leads to abnormal activity that promotes excessive growth and differentiation of cells even in the absence of growth factors, as well as inhibition of apoptosis and formation of metastases. Moreover, the status of the TP53 gene in leukaemia is not insignificant. Mutations of the TP53 gene occur in more than 50% of all cancers, leading to increased metastasis and an overall poor prognosis[38]^,[39]. The p53 protein encoded by this gene plays a pivotal role in controlling cell division or cell fate when damage is detected. […] Therefore, interaction between the signalling network of the BCR-ABL pathway and p53 often results in an impairment of p53 function and survival[43]^,[44]. […] Selectivity studies were performed on normal human fibroblast – NHDF cell line.
M. Rusin from the Maria Sklodowska-Curie Memorial Cancer Centre and Institute of Oncology in Gliwice, Poland. […] G. Kramer-Marek from the Institute of Cancer Research in London, United Kingdom. The human suspension chronic myeloids leukaemia cell line K562 and the pancreatic ductal adenocarcinoma cell line PANC-1 were purchased from Merck. The normal human dermal fibroblasts cell line NHDF were obtained from PromoCell. All adherent cancer cell lines were cultured in Dulbecco’s Modified Eagle’s medium (DMEM) supplemented with 10% heat-inactivated foetal bovine serum – FBS (all from Merck). […] Each complete medium contained a mixture of two antibiotics - penicillin and streptomycin (1% v/v; Gibco). Cell lines were cultured at 37 °C with 5% CO2 humidified atmosphere.
The assay was carried out after 72 h of incubation with different concentrations of the tested compounds. Then DMEM without phenol red was added to each well with CellTiter 96®AQueous One Solution-MTS (Promega) solution and incubated for 1 h or 3 h (PANC-1) at 37 °C. The optical densities of the samples were measured at 490 nm using a multi-plate reader (Synergy 4, BioTek). […] Each compound was tested in triplicate in a single experiment and each experiment was performed three or four times.

BTK = biological target: T2, BTK (Homo sapiens, UniProt Q06187); experiment: Tyrosine kinase assay (Kinase Selectivity System TK-2, ADP-Glo); type: biochemical; settings: 1 h incubation, mean ± SD of four experiments
T2 construct: purchased Promega
T2 sequence (Q06187 whole entry): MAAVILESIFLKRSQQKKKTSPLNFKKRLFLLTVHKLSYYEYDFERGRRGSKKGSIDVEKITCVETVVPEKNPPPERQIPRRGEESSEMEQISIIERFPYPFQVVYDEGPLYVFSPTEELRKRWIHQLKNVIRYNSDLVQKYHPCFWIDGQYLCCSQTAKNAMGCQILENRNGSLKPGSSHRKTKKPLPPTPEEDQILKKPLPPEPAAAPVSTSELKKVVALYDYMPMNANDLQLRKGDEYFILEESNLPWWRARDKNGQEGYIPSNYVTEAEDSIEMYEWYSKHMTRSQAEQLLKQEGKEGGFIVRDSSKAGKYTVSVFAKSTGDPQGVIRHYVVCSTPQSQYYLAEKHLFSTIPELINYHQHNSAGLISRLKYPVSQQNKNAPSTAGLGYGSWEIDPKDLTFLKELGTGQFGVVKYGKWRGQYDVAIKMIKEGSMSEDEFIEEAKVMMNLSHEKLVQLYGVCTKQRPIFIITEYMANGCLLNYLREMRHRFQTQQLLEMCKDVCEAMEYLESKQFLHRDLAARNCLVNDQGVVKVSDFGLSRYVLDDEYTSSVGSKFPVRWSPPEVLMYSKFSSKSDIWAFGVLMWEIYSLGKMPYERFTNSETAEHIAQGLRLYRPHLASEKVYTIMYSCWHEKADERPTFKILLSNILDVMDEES

T1 sequence (P06239 whole entry): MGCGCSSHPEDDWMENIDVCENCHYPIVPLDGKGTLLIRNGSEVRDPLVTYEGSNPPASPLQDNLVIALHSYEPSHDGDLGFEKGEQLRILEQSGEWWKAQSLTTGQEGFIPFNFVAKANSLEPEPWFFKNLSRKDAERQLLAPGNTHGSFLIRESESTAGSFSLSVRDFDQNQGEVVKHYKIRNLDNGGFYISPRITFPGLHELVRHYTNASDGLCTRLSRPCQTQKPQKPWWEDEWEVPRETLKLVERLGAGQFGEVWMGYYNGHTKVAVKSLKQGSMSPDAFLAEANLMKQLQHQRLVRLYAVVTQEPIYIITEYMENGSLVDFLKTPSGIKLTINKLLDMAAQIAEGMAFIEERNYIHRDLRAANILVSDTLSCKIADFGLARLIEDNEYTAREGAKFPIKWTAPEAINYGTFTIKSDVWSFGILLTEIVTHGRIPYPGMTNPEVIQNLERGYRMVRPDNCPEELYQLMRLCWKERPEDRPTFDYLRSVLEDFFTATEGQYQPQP

`NC(=O)c1cccc(-c2cc(Nc3ccc(OC(F)(F)F)cc3)ncn2)c1` [GNF-2, reference compound] was tested, and the “Src protein expression / phosphorylation” value (K562 cells [1]) was “significant accumulation”, the STAT5 phosphorylation (K562 cells [1]) was “stronger effect” and the “Expression of the ABL gene (mRNA)” value (K562 cells [2]) was “significantly enhanced”. For the same compound, the “SRC mRNA levels” value (K562 cells [2]) was “significant decrease”, the inhibition at 0.5 µM (Lck) was 0% and the IC50 (NHDF) was greater than 25 µM. For the same compound, the inhibition at 0.5 µM (BTK) was 0%.

For `COc1ccccc1/C=C/c1nc(Sc2cccc(O)c2)c2ccccc2n1` [IS8, 3-{2-[(E)-2–(2-methoxyphenyl)ethenyl]quinazolin-4-ylthio}phenol], the “Inhibition of STAT5 phosphorylation at Tyr694” value (K562 cells [1]; 12 and 6 µM) was 1.5 fold, the ABL phosphorylation (K562 cells [1]) was “significant decrease (about two-fold)” and the AIF protein (K562 cells [1]) was “significant increase”. For the same compound, the “Decrease of the level of BID” value (K562 cells [1]) was “approximately 2 fold”, the “Src protein expression / phosphorylation” value (K562 cells [1]) was “almost two-fold decrease” and the p27 expression (K562 cells [1]) was “more than two-fold increase”. For the same compound, the “Inhibition of expression of Ser473 phosphorylated Akt” value (K562 cells [1]) was “more than two-fold”, the “Cyclin E1 protein level” value (K562 cells [1]) was “significantly downregulated” and the “CCNE2 expression (mRNA)” value (K562 cells [2]) was “significant decrease”. It also gave an inhibition at 0.5 µM (Lck) of 0%, an IC50 (NHDF) greater than 25 µM and an inhibition at 0.5 µM (BTK) of 19.1 ± 1.23%.

For `COc1ccccc1/C=C/c1nc(Sc2ccc3c(c2)OCO3)c2ccccc2n1` [IS10, 5-{2-[(E)-2–(2-methoxyphenyl)ethenyl]quinazolin-4-ylthio}-2H-1,3-benzodioxole], the “Decrease in p-STAT5 expression” value (K562 cells [1]; 20 µM) was “more than three-fold decrease”, the ABL phosphorylation (K562 cells [1]) was “significant decrease (about two-fold)” and the “Decrease of the level of BID” value (K562 cells [1]) was “approximately 2 fold”. For the same compound, the “Src protein expression / phosphorylation” value (K562 cells [1]) was “almost two-fold decrease”, the p27 expression (K562 cells [1]) was “more than two-fold increase” and the “Inhibition of expression of Ser473 phosphorylated Akt” value (K562 cells [1]) was “more than two-fold”. For the same compound, the “Cyclin E1 protein level” value (K562 cells [1]) was “significantly downregulated”, the “CCNE2 expression (mRNA)” value (K562 cells [2]) was “significant decrease” and the “Expression of the ABL gene (mRNA)” value (K562 cells [2]) was “significantly enhanced”. It also gave an inhibition at 0.5 µM (Lck) of 28.1 ± 5.74%, an IC50 (NHDF) greater than 25 µM and an inhibition at 0.5 µM (BTK) of 15.9 ± 3.66%.

In the case of `COc1ccccc1/C=C/c1nc(Sc2ccccc2Cl)c2ccccc2n1` [IS1, 2-[(E)-2–(2-methoxyphenyl)ethenyl]-4–(2-chlorophenylthio)quinazoline], the ABL phosphorylation (K562 cells [1]) is reported as “ineffective”, the AIF protein (K562 cells [1]) is reported as “significant increase” and the Fyn expression (K562 cells [1]) is reported as “downregulation”. For the same compound, the “Src protein expression / phosphorylation” value (K562 cells [1]) was “ineffective”, the STAT5 phosphorylation (K562 cells [1]) was “ineffective” and the “Expression of the ABL gene (mRNA)” value (K562 cells [2]) was “slight non-significant decrease”. The “SRC mRNA levels” value (K562 cells [2]) was “significant decrease”, the “Inhibition of tyrosine kinase activity [%] Lck” value (Lck; 0.5 μM) was 79.08 ± 3.51% and the inhibition at 0.5 µM (Lck) was 79%. For the same compound, the IC50 (NHDF) was greater than 25 µM and the inhibition at 0.5 µM (BTK) was 89 ± 8.34%.
